Legend:
Assay type in all cases: cell-based
[1] = system: MCF7 cells; assay: E2-stimulated MCF7 cell proliferation assay (8 day, DNA fluorescence); details: 10^-9 M E2, ligand 10^-11-10^-6 M, 8 day assay
Procedure: Assays evaluating the effects of SERDs and SERMs on cell proliferation were performed as described (Wardell et al., (2013) Clin Cancer Res 19 (9):2420-2431).
The ability of RAD1901 (FIG. 5A) to modulate the […] estradiol (E2) dependent transcriptional activity of the human estrogen receptor alpha (ESR1) and human estrogen receptor beta (ESR2) was assessed in transiently transfected SKBR3 cells using a synthetic reporter gene. […] For FIG. 5B, SKBR3 cells were plated in phenol red free media supplemented with charcoal stripped FBS (CFS) 24 hours prior to transfection with an ERE-luciferase reporter together with ESR1 or ESR2 expression vectors. 24 hours after transfection, cells were treated with E2 (10 nM) together with RAD1901 (10^−10-10^−6 M) for 24 hours prior to harvest and analysis of luciferase activity normalized to co-transfected β-galactosidase control. […] DNA content as assessed by fluorescence was measured as a surrogate for cell proliferation. The relative increase in DNA fluorescence was calculated by normalizing to baseline values detected in a duplicate plate of cells that was harvested on day 1 prior to the initial treatment. […] For FIG. 5F, expression of ESR1 target genes in tumors was analyzed essentially as in (C).

[2] = biological target: T1, ESR1 (Homo sapiens, UniProt P03372); assay: ESR1 expression in MCF7 cells (immunoblot, mRNA, MG132 pre-treatment)
T1 sequence (P03372 1-595): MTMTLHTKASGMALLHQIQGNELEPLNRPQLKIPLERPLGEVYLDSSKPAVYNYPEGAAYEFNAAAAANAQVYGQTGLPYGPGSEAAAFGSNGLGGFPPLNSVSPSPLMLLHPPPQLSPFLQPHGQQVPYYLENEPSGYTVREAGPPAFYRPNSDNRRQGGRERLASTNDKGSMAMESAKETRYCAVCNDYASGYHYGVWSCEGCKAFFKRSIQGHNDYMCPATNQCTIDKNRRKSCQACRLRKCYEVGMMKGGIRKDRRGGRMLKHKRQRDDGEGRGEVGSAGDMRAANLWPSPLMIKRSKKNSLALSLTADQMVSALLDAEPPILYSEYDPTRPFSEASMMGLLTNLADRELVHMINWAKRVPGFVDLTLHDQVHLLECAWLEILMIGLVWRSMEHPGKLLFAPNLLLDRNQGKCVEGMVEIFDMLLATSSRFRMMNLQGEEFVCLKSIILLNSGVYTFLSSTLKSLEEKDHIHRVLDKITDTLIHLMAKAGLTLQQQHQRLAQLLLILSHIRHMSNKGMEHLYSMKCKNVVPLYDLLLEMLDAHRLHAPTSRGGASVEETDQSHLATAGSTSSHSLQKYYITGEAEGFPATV
Procedure: Protein expression was analyzed as described (Wittmann et al., (2007) Cancer Res 67 (19):9549-9560) using antibodies purchased from Sigma-Aldrich—A5441 (β-actin) and Santa Cruz Biotechnology—sc-6259 (cytokeratin 18), sc-20680 (lamin A), sc-5546 (α-tubulin) and sc-8005 (ESR1).
Expression of ESR1 and loading control cytokeratin 18 (CK18—FIG. 7A) in whole cell extracts were detected by immunoblot (top). ESR1 levels relative to CK18 were quantitated by densitometry using Adobe Photoshop (bottom). […] ESR1 expression was detected as in FIG. 6A. For FIGS. 6C-6D, LTED MCF7 cells were plated in phenol red free media supplemented with FBS that was stripped of growth factors twice using charcoal. For FIG. 6C, after 48 hours, cells were treated for 24 hours with E2 (10^−7 M) or SERDs (10^−6 M) and ESR1 was analyzed as in FIG. 6A.

[3] = system: LTED MCF7 cells; assay: LTED MCF7 cell proliferation assay; details: model of aromatase resistance, 10^-11-10^-6 M, 8 day assay

ESR1 mRNA expression [2]: no effect
ESR1 expression (immunoblot) ([2]; 24 hours, RAD1901 10^-11-10^-5 M): significantly downregulated
downregulation of ESR1 after pre-treatment with proteasome inhibitor MG132 ([2]; MG132 1 hour pre-treatment, 6 hours ligand): completely blocked
SMILES: CCNCCc1ccc(CN(CC)c2cc(OC)ccc2[C@@H]2CCc3cc(O)ccc3C2)cc1 [RAD1901, (R)-6-{2-{ethyl[4-(2-ethylaminoethyl)benzyl]amino}-4-methoxyphenyl}-5,6,7,8-tetrahydronaphthalen-2-ol]
E2-dependent stimulation of cell proliferation [1]: inhibited
cell proliferation [3]: inhibited cell proliferation
